Test results taken from publication PMC11384906, “PAR1-mediated Non-periodical Synchronized Calcium Oscillations in Human Mesangial Cells” (Function, 2024).

How the values were obtained:
[1] = system: freshly isolated Wistar rat glomeruli; conditions: Ang II 60 µM, acute application; text b29 words it 'up to'
Excerpt: Sixteen-week Wistar Kyoto male rats were obtained from Charles River and were kept in a light-controlled environment with a 12:12-h light/dark cycle and given free access to water (filtered, RO water) and food (5V75-PicoLab Verified 75 IF, LabDiet, USA).
Briefly, male Wistar rat kidneys were harvested, decapsulated, and used to isolate glomeruli by differential sieving. Freshly isolated glomeruli were collected and stored on ice in a 15-mL tube with a 5% BSA (Sigma-Aldrich, # A8327)/RPMI-1640 solution with non-permeable 150 kDa TRITC-dextran (1 mg/mL, TdB Labs, #TD150, Uppsala, Sweden). […] Glomeruli were attached to poly-L-lysine covered glass-bottom dishes and covered with the extracellular solution containing 150 kDa TRITC dextran. Z-stacks with 18 consecutive focal planes (3 µm each) were collected every 1 min, allowing glomeruli volume reconstruction. Output files were imported into Imaris Software (Oxford Bitplane, version 9.6.1), reconstructed in 3D, and processed to calculate glomerular volume.

endothelial cells = conditions: cited from earlier work
mesangial cells = conditions: cited from earlier work
platelets = conditions: cited from earlier work
[2] = system: vascular smooth muscle cells; conditions: cited from earlier work
monocytes = conditions: cited from earlier work
MCs = conditions: cited from earlier work
neuronal cells = conditions: cited from earlier work

Substance | Glomerular volume reduction [1] | Thrombin concentration required to activate endothelial cells (endothelial cells) | Concentration at which significant Ca2+ response was detected (mesangial cells) | Concentration at which significant Ca2+ response was detected (molar equivalent) (mesangial cells; equivalent of 0.1 U/mL) | Thrombin concentration sufficient to induce Ca2+ mobilization (platelets) | Thrombin concentration required to activate vascular smooth muscle cells [2] | Thrombin concentration required to activate intracellular Ca2+ signaling (monocytes) | Effect on MC proliferation and synthesis (MCs) | Thrombin concentration required to activate intracellular Ca2+ signaling (neuronal cells)
Angiotensin II [Ang II] | 20.7% | – | – | – | – | – | – | – | –
thrombin | – | 0.5 to 2 U/mL | around 0.1 U/mL | approximately 1 nM | 0.1 to 1 U/mL | 0.5 to 2 U/mL | 1-5 U/mL | stimulate MC proliferation and synthesis of prostaglandins, nitric oxide, endothelin-1, extracellular matrix components, and chemokines | 1-5 U/mL
